# Experimental data as given in patent US7612099B2, “Vinylogous acid derivatives” (Hoffmann-La Roche Inc., priority 2005, dated 2009).
# Biological target: T1, Chymase purified form human skin mast cells (Homo sapiens, UniProt P23946)
# T1 construct: Chymase purified form human skin mast cells was obtained from Calbiochem; purchased Calbiochem (Merck Biosciences, San Diego, Calif., USA); host or cells: human skin mast cells (tissue-derived, not recombinant)
# T1 sequence (P23946 22-247): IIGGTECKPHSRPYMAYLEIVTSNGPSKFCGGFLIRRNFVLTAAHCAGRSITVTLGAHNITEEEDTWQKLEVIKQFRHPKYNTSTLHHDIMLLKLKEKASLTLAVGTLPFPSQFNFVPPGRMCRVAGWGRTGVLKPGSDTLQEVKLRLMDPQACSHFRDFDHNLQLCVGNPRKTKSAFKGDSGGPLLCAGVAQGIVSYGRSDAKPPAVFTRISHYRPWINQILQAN
# Assay: chymase peptide substrate assay (AAPF-AMC fluorescence)
# Assay type: biochemical
# Details: 0.02 mM AAPF-substrate, 1 nM Chymase, pH 7.4, room temperature, 30 min pre-incubation
# Method: The peptide was synthesized with a purity of 95% from Bachem, Bubendorf, Switzerland). Chymase purified form human skin mast cells was obtained from Calbiochem (Merck Biosciences, San Diego, Calif., USA). The assay buffer was 0.15 M NaCl, 0.05M, Tris HCl, 0.05% CHAPS (3-[(3-Cholamidopropyl)-dimethylammonio]-1-propane sulphonate), 0.1 mg/ml Heparin (Heparin sodium, Sigma, porcine intestinal mucosa), 0.02 mM AAPF-substrate, 1 nM Chymase at pH 7.4. The assay was performed in 96-well plates (Packard Optiplate), with a 0.05 ml volume at room temperature. Chymase activity was indicated by the initial rate of increase in fluorescence at 340/440 nm (excitation/emission) from free 7-amino-4-methylcoumarin released from the substrate. Inhibition of the activity by inhibitory compounds was read after 30 min pre-incubation with the chymase at room temperature in assay buffer without AAPF-substrate. The assay was then started by addition of the indicated concentration of AAPF-substrate.
row,SMILES,IC50
1,"CC(=O)NCc1c(C(C2=C(O)[C@@](C)(c3ccccc3)OC2=O)c2ccccc2)[nH]c2cc(C)ccc12 (stereo partly drawn) [Example 72, N-{2-[((R)-4-Hydroxy-5-methyl-2-oxo-5-phenyl-2,5-dihydro-furan-3-yl)-phenyl-methyl]-6-methyl-1H-indol-3-ylmethyl}-acetamide]",15 nM
2,"CC(=O)NCCc1c(C(C2=C(O)C(Cc3ccccc3)OC2=O)c2ccccc2)[nH]c2cc(F)ccc12 (stereo not shown) [Example 16, N-(2-{2-[(5-Benzyl-4-hydroxy-2-oxo-2,5-dihydro-furan-3-yl)-phenyl-methyl]-6-fluoro-1H-indol-3-yl}-ethyl)-acetamide]",24 nM
3,"CC(=O)NCc1c(C(C2=C(O)[C@@](C)(c3ccccc3)NC2=O)c2ccccc2)[nH]c2cc(C)ccc12 (stereo partly drawn) [Example 63, N-{2-[((R)-4-Hydroxy-5-methyl-2-oxo-5-phenyl-2,5-dihydro-1H-pyrrol-3-yl)-phenyl-methyl]-6-methyl-1H-indol-3-ylmethyl}-acetamide]",10 nM

# The remaining lines, values ahead:
row,IC50,SMILES
1,5 nM,"Cc1c(C(C2=C(O)[C@@](C)(c3ccccc3)NC2=O)c2ccccc2)[nH]c2ccc(F)cc12 (stereo partly drawn) [Example 67, (R)-3-[(5-Fluoro-3-methyl-1H-indol-2-yl)-phenyl-methyl]-4-hydroxy-5-methyl-5-phenyl-1,5-dihydro-pyrrol-2-one]"
2,2 nM,"Cc1c(C(C2=C(O)C(c3ccccc3)CC2=O)c2ccccc2)[nH]c2ccc(F)cc12 (stereo not shown) [Example 79, 2-[(5-Fluoro-3-methyl-1H-indol-2-yl)-phenyl-methyl]-3-hydroxy-4-phenyl-cyclopent-2-enone]"
3,13 nM,"Cc1c(C(C2=C(O)C(C(C)C)N(C)C2=O)c2ccccc2)[nH]c2ccc(F)cc12 (stereo not shown) [Example 11, 3-[(5-Fluoro-3-methyl-1H-indol-2-yl)-phenyl-methyl]-4-hydroxy-5-isopropyl-1-methyl-1,5-dihydro-pyrrol-2-one]"
4,3 nM,"CC(=O)NCCc1c(C(C2=C(O)C(c3ccccc3)CC2=O)c2ccccc2)[nH]c2cc(F)ccc12 (stereo not shown) [Example 43, N-(2-{6-Fluoro-2-[(2-hydroxy-5-oxo-3-phenyl-cyclopent-1-enyl)-phenyl-methyl]-1H-indol-3-yl}-ethyl)-acetamide]"
